Assay results from ChEMBL document CHEMBL4396937, “Synthesis of new triazole fused imidazo[2,1-b]thiazole hybrids with emphasis on Staphylococcus aureus virulence factors” (Bioorg Med Chem Lett, 2019).
Values after ≈ are worked out from the molar mass of the structure shown. Active and inactive are the calls of the source. No cut-off for these calls is given here.

How the values were obtained:
Bacillus subtilis [1] = experiment: Antibacterial activity against Bacillus subtilis MTCC 121 assessed as reduction in bacterial growth incubated for 24 hrs by agar well diffusion method; assay type: functional; conditions: MTCC 121, 24 h
Staphylococcus aureus [2] = experiment: Antibacterial activity against Staphylococcus aureus MLS-16 MTCC 2940 assessed as reduction in bacterial growth incubated for 24 hrs by agar well diffusion method; assay type: functional; conditions: MLS-16 MTCC 2940, 24 h
Micrococcus luteus [3] = experiment: Antibacterial activity against Micrococcus luteus MTCC 2470 assessed as reduction in bacterial growth incubated for 24 hrs by agar well diffusion method; assay type: functional; conditions: MTCC 2470, 24 h
Staphylococcus aureus [4] = experiment: Antibacterial activity against Staphylococcus aureus MTCC 96 assessed as reduction in bacterial growth incubated for 24 hrs by agar well diffusion method; assay type: functional; conditions: MTCC 96, 24 h
Escherichia coli [5] = experiment: Antibacterial activity against Escherichia coli MTCC 739 assessed as reduction in bacterial growth incubated for 24 hrs by agar well diffusion method; assay type: functional; conditions: MTCC 739, 24 h
Pseudomonas aeruginosa [6] = experiment: Antibacterial activity against Pseudomonas aeruginosa MTCC 2453 assessed as reduction in bacterial growth incubated for 24 hrs by agar well diffusion method; assay type: functional; conditions: MTCC 2453, 24 h
Raoultella planticola [7] = experiment: Antibacterial activity against Klebsiella planticola MTCC 530 assessed as reduction in bacterial growth incubated for 24 hrs by agar well diffusion method; assay type: functional; conditions: MTCC 530, 24 h
Candida albicans [8] = experiment: Antifungal activity against Candida albicans MTCC 3017 assessed as reduction in fungal growth incubated for 24 hrs by agar well diffusion method; assay type: functional
Bacillus subtilis [9] = experiment: Bactericidal activity against Bacillus subtilis MTCC 121 assessed as reduction in bacterial survival incubated for 24 hrs followed by transfer of microbial suspension to agar plates and measured at 24 hrs post transfer by agar well diffusion method; assay type: functional; conditions: MTCC 121, 24 h
Staphylococcus aureus [10] = experiment: Bactericidal activity against Staphylococcus aureus MLS-16 MTCC 2940 assessed as reduction in bacterial survival incubated for 24 hrs followed by transfer of microbial suspension to agar plates and measured at 24 hrs post transfer by agar well diffusion method; assay type: functional; conditions: MLS-16 MTCC 2940, 24 h
Micrococcus luteus [11] = experiment: Bactericidal activity against Micrococcus luteus MTCC 2470 assessed as reduction in bacterial survival incubated for 24 hrs followed by transfer of microbial suspension to agar plates and measured at 24 hrs post transfer by agar well diffusion method; assay type: functional; conditions: MTCC 2470, 24 h
Staphylococcus aureus [12] = experiment: Bactericidal activity against Staphylococcus aureus MTCC 96 assessed as reduction in bacterial survival incubated for 24 hrs followed by transfer of microbial suspension to agar plates and measured at 24 hrs post transfer by agar well diffusion method; assay type: functional; conditions: MTCC 96, 24 h
Escherichia coli [13] = experiment: Bactericidal activity against Escherichia coli MTCC 739 assessed as reduction in bacterial survival incubated for 24 hrs followed by transfer of microbial suspension to agar plates and measured at 24 hrs post transfer by agar well diffusion method; assay type: functional; conditions: MTCC 739, 24 h
Pseudomonas aeruginosa [14] = experiment: Bactericidal activity against Pseudomonas aeruginosa MTCC 2453 assessed as reduction in bacterial survival incubated for 24 hrs followed by transfer of microbial suspension to agar plates and measured at 24 hrs post transfer by agar well diffusion method; assay type: functional; conditions: MTCC 2453, 24 h
Raoultella planticola [15] = experiment: Bactericidal activity against Klebsiella planticola MTCC 530 assessed as reduction in bacterial survival incubated for 24 hrs followed by transfer of microbial suspension to agar plates and measured at 24 hrs post transfer by agar well diffusion method; assay type: functional; conditions: MTCC 530, 24 h
Candida albicans [16] = experiment: Fungicidal activity against Candida albicans MTCC 3017 assessed as reduction in fungal survival incubated for 24 hrs followed by transfer of microbial suspension to agar plates and measured at 24 hrs post transfer by agar well diffusion method; assay type: functional
Bacillus subtilis [17] = experiment: Antibiofilm activity against Bacillus subtilis MTCC 121 assessed as inhibition of biofilm formation by crystal violet staining-based microtitre plate assay; assay type: functional, organism-based
Staphylococcus aureus [18] = experiment: Antibiofilm activity against Staphylococcus aureus MLS-16 MTCC 2940 assessed as inhibition of biofilm formation by crystal violet staining-based microtitre plate assay; assay type: functional, organism-based
Micrococcus luteus [19] = experiment: Antibiofilm activity against Micrococcus luteus MTCC 2470 assessed as inhibition of biofilm formation by crystal violet staining-based microtitre plate assay; assay type: functional, organism-based
Staphylococcus aureus [20] = experiment: Antibiofilm activity against Staphylococcus aureus MTCC 96 assessed as inhibition of biofilm formation by crystal violet staining-based microtitre plate assay; assay type: functional, organism-based
Escherichia coli [21] = experiment: Antibiofilm activity against Escherichia coli MTCC 739 assessed as inhibition of biofilm formation by crystal violet staining-based microtitre plate assay; assay type: functional, organism-based
Pseudomonas aeruginosa [22] = experiment: Antibiofilm activity against Pseudomonas aeruginosa MTCC 2453 assessed as inhibition of biofilm formation by crystal violet staining-based microtitre plate assay; assay type: functional, organism-based
Raoultella planticola [23] = experiment: Antibiofilm activity against Klebsiella planticola MTCC 530 assessed as inhibition of biofilm formation by crystal violet staining-based microtitre plate assay; assay type: functional, organism-based
MRC5 = experiment: Cytotoxicity against human MRC5 cells assessed as reduction in cell viability incubated for 48 hrs by MTT assay; assay type: cell-based; conditions: MRC5, 48 h
Staphylococcus aureus [24] = experiment: Antibiofilm activity against Staphylococcus aureus MTCC 96 assessed as inhibition of biofilm formation incubated for 48 hrs in presence of Escherichia coli MTCC 739 by FE-SEM analysis; assay type: functional, organism-based; conditions: MTCC 96, 48 h

MIC (Bacillus subtilis [1]) [µg/mL]	MIC (Staphylococcus aureus [2]) [µg/mL]	MIC (Micrococcus luteus [3]) [µg/mL]	MIC (Staphylococcus aureus [4]) [µg/mL]	MIC (Escherichia coli [5]) [µg/mL]	MIC (Pseudomonas aeruginosa [6]) [µg/mL]	IC50 (Bacillus subtilis [17]) [µg/mL]	IC50 (Staphylococcus aureus [18]) [µg/mL]	IC50 (Micrococcus luteus [19]) [µg/mL]	IC50 (Staphylococcus aureus [20]) [µg/mL]	IC50 (Pseudomonas aeruginosa [22]) [µg/mL]	Compound	MIC (Raoultella planticola [7]) [µg/mL]	MBC (Bacillus subtilis [9]) [µg/mL]	MBC (Staphylococcus aureus [10]) [µg/mL]	MBC (Micrococcus luteus [11]) [µg/mL]	MBC (Staphylococcus aureus [12]) [µg/mL]	MBC (Escherichia coli [13]) [µg/mL]	MBC (Pseudomonas aeruginosa [14]) [µg/mL]	MBC (Raoultella planticola [15]) [µg/mL]	IC50 (Raoultella planticola [23]) [µg/mL]	other results
3.9 (≈ 8.66 µM)	3.9 (≈ 8.66 µM)	7.8 (≈ 17.3 µM)	3.9 (≈ 8.66 µM)	3.9 (≈ 8.66 µM)	3.9 (≈ 8.66 µM)	16 (≈ 35.5 µM)	14.4 (≈ 32 µM)	13.9 (≈ 30.9 µM)	21.8 (≈ 48.4 µM)	20.2 (≈ 44.9 µM)	O=C(c1cn(-c2ccc(Br)cc2)nn1)c1c(-c2ccccc2)nc2sccn12	3.9 (≈ 8.66 µM)	7.8 (≈ 17.3 µM)	7.8 (≈ 17.3 µM)	15.6 (≈ 34.6 µM)	7.8 (≈ 17.3 µM)	7.8 (≈ 17.3 µM)	7.8 (≈ 17.3 µM)	7.8 (≈ 17.3 µM)	21.1 (≈ 46.9 µM)	MIC (Candida albicans [8]; MTCC 3017, 24 h): 7.8 µg/mL (≈ 17.3 µM); MFC (Candida albicans [16]; MTCC 3017, 24 h): 15.6 µg/mL (≈ 34.6 µM); IC50 (Escherichia coli [21]): 20.2 µg/mL (≈ 44.9 µM); IC50 (MRC5): 28.1 µg/mL (≈ 62.4 µM)
3.9 (≈ 8.86 µM)	7.8 (≈ 17.7 µM)	3.9 (≈ 8.86 µM)	3.9 (≈ 8.86 µM)	3.9 (≈ 8.86 µM)	3.9 (≈ 8.86 µM)	13.2 (≈ 30 µM)	11.9 (≈ 27 µM)	13.7 (≈ 31.1 µM)	18.4 (≈ 41.8 µM)	19.3 (≈ 43.8 µM)	O=C(c1cn(-c2ccc(Cl)cc2)nn1)c1c(-c2ccc(Cl)cc2)nc2sccn12	3.9 (≈ 8.86 µM)	7.8 (≈ 17.7 µM)	15.6 (≈ 35.4 µM)	7.8 (≈ 17.7 µM)	7.8 (≈ 17.7 µM)	7.8 (≈ 17.7 µM)	7.8 (≈ 17.7 µM)	7.8 (≈ 17.7 µM)	16.8 (≈ 38.2 µM)	MIC (Candida albicans [8]; MTCC 3017, 24 h): 7.8 µg/mL (≈ 17.7 µM); MFC (Candida albicans [16]; MTCC 3017, 24 h): 15.6 µg/mL (≈ 35.4 µM); IC50 (Escherichia coli [21]): 14 µg/mL (≈ 31.8 µM); IC50 (MRC5): 24.2 µg/mL (≈ 55 µM)

Compound	MIC (Bacillus subtilis [1]) [µg/mL]	MIC (Staphylococcus aureus [2]) [µg/mL]	MIC (Micrococcus luteus [3]) [µg/mL]	MIC (Staphylococcus aureus [4]) [µg/mL]	MIC (Escherichia coli [5]) [µg/mL]	MIC (Pseudomonas aeruginosa [6]) [µg/mL]	IC50 (Bacillus subtilis [17]) [µg/mL]	IC50 (Staphylococcus aureus [18]) [µg/mL]	IC50 (Micrococcus luteus [19]) [µg/mL]	IC50 (Staphylococcus aureus [20]) [µg/mL]	IC50 (Pseudomonas aeruginosa [22]) [µg/mL]	MIC (Raoultella planticola [7]) [µg/mL]	MBC (Bacillus subtilis [9]) [µg/mL]	MBC (Staphylococcus aureus [10]) [µg/mL]	MBC (Micrococcus luteus [11]) [µg/mL]	MBC (Staphylococcus aureus [12]) [µg/mL]	MBC (Escherichia coli [13]) [µg/mL]	MBC (Pseudomonas aeruginosa [14]) [µg/mL]	MBC (Raoultella planticola [15]) [µg/mL]	IC50 (Raoultella planticola [23]) [µg/mL]	other results
O=C(O)c1cn(C2CC2)c2cc(N3CCNCC3)c(F)cc2c1=O [CIPROFLOXACIN]	0.9 (≈ 2.72 µM)	0.9 (≈ 2.72 µM)	0.9 (≈ 2.72 µM)	0.9 (≈ 2.72 µM)	0.9 (≈ 2.72 µM)	0.9 (≈ 2.72 µM)	6.6 (≈ 19.9 µM)	6.6 (≈ 19.9 µM)	6.8 (≈ 20.5 µM)	6.7 (≈ 20.2 µM)	7.4 (≈ 22.3 µM)	0.9 (≈ 2.72 µM)	1.9 (≈ 5.73 µM)	1.9 (≈ 5.73 µM)	1.9 (≈ 5.73 µM)	1.9 (≈ 5.73 µM)	1.9 (≈ 5.73 µM)	1.9 (≈ 5.73 µM)	1.9 (≈ 5.73 µM)	8.6 (≈ 26 µM)	MIC (Candida albicans [8]): inactive; MFC (Candida albicans [16]): inactive; IC50 (MRC5): 53.4 µg/mL (≈ 161 µM); IC50 (Staphylococcus aureus [24]): 11.6 µg/mL
